The values that follow come from US9718825B2, “N-(4-(azaindazol-6-yl)-phenyl)-sulfonamides and their use as pharmaceuticals” (priority 2013, dated 2017).

In general, IC50 refers to the concentration that inhibits the measured activity by half.

Assay [1] concerns the target recombinant human SGK-1 enzyme (Homo sapiens, UniProt O00141). The experiment in a line: Enzymatic activity assay: SGK-1 substrate peptide phosphorylation (Caliper lab-chip mobility shift). It is filed as biochemical. To be noted: peptide substrate 1 μM, ATP 10 μM, 60 min at 37° C., read-out: IC50 values for inhibition of SGK-1 enzymatic activity.
In assay [2] the test system is SGK-1 dependent phosphorylation of GSK3beta in U2OS cells. The experiment in a line: SGK-1 dependent phosphorylation of GSK3beta in U2OS cells overexpressing recombinant SGK-1 and GSK3beta. The format is cell-based, human. The conditions noted are these: U2OS cells, 6 h incubation, ratio of phosphorylated GSK3beta to total GSK3beta; read-out: IC50 values for inhibition of SGK-1 dependent phosphorylation of GSK3beta in U2OS cells.

Chain of recombinant human SGK-1 enzyme (O00141 whole entry, looked up): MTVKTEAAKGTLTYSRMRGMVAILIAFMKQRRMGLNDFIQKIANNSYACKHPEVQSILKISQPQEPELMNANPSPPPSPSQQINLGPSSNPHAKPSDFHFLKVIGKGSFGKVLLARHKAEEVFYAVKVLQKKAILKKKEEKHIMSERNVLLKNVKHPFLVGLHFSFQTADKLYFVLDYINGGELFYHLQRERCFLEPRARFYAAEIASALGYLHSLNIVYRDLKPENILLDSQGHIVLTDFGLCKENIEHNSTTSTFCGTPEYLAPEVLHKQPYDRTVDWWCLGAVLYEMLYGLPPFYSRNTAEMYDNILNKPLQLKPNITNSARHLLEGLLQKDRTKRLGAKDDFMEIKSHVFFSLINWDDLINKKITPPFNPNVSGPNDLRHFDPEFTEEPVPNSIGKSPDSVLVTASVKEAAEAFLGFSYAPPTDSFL

On to `Cc1ccc(C#N)c(S(=O)(=O)Nc2ccc(-c3nc(OC4CCCNC4)c4c(C)n[nH]c4n3)cc2)c1` (centres unmarked) [Example 320], for which the IC50 is 3.7 nM in assay [1] and 57 nM in assay [2].
Taken in the same sequence, the figures for `Cc1n[nH]c2nc(-c3ccc(NS(=O)(=O)c4cc(C#N)ccc4F)cc3)nc(OC3CCC(O)CC3)c12` (centres unmarked) [Example 128] were 2.7 nM and 3600 nM.
Taken in the same sequence, the figures for `COc1ccc(Cl)c(S(=O)(=O)Nc2ccc(-c3nc(OCCCN)c4c(C)n[nH]c4n3)cc2)c1` [Example 212] were less than 1.5 nM and 110 nM.
Taken in the same sequence, the figures for `Cc1n[nH]c2nc(-c3ccc(NS(=O)(=O)c4cc(Cl)ccc4C#N)cc3)nc(OC3CCNCC3F)c12` (centres unmarked) [Example 299] were 3.3 nM and 410 nM.
Take `Cc1n[nH]c2nc(-c3ccc(NS(=O)(=O)c4cc(F)ccc4F)cc3)nc(OC3CCC(O)CC3)c12` (centres unmarked) [Example 217]: the IC50 in assay [1] came out at 9.1 nM; in assay [2], 190 nM.
For `N#Cc1ccc(Cl)cc1S(=O)(=O)Nc1ccc(-c2nc(OC3CNC3)c3cn[nH]c3n2)cc1` [Example 191], in that order: 21 nM and 2700 nM.
Taken in the same sequence, the figures for `Cc1ccc(C#N)c(S(=O)(=O)Nc2ccc(-c3nc(OC4CCN(C)CC4)c4cn[nH]c4n3)cc2)c1` [Example 314] were 4.5 nM and 250 nM.
Taken in the same sequence, the figures for `CC(C)COc1nc(-c2ccc(NS(=O)(=O)c3ccccc3F)cc2)nc2[nH]nc(N)c12` [Example 331] were 290 nM and 240 nM.
For `Cc1nc(-c2ccc(NS(=O)(=O)c3cccc(F)c3C#N)cc2)nc2[nH]nc(N)c12` [Example 474], the IC50 in assay [1] stood at 12 nM; in assay [2] it was 11000 nM.
For `COc1ccc(Cl)c(S(=O)(=O)Nc2ccc(-c3nc(OCC4CNCCO4)c4cn[nH]c4n3)cc2)c1` (centres unmarked) [Example 306], in that order: 7.1 nM and 19 nM.
For `O=S(=O)(Nc1ccc(-c2nc(O[C@@H]3CCC[C@H]3O)c3cn[nH]c3n2)cc1)c1cc(Cl)ccc1F` [Example 87], in that order: 6.8 nM and 4100 nM.
Taken in the same sequence, the figures for `O=S(=O)(Nc1ccc(-c2nc(OC3CCC(O)C3)c3cn[nH]c3n2)cc1)c1cc(Cl)ccc1F` (centres unmarked) [Example 75] were 4.8 nM and 250 nM.
Consider `Cc1ccc(F)c(S(=O)(=O)Nc2ccc(-c3nc(OC4C[C@@H](O)C[C@@H](O)C4)c4cn[nH]c4n3)cc2)c1` (some centres unmarked) [Example 119], for which the IC50 in assay [1] is less than 1.5 nM; in assay [2] it was 11000 nM.
Turning to `Cc1ccc(C#N)c(S(=O)(=O)Nc2ccc(-c3nc(OCC4CNCCO4)c4cn[nH]c4n3)cc2)c1` (centres unmarked) [Example 315], the figures for the IC50 in assay [1] and in assay [2] were 7.9 nM and 600 nM, respectively.
For `Cc1ccc(C#N)c(S(=O)(=O)Nc2ccc(-c3nc(OC4CCNCC4F)c4c(C)n[nH]c4n3)cc2)c1` (centres unmarked) [Example 300], in that order: 1.1 nM and 92 nM.
For the compound `Cc1ccc(F)c(S(=O)(=O)Nc2ccc(-c3nc(N4CC(CO)C4)c4cn[nH]c4n3)cc2)c1` [Example 109], the IC50 turned out to be 16 nM in assay [1] and 4600 nM in assay [2].
Take `Cc1ccc(F)c(S(=O)(=O)Nc2ccc(-c3ncc4c(C)n[nH]c4n3)cc2)c1` [Example 95]: the IC50 in assay [1] was less than 1.5 nM; in assay [2], 4600 nM.
Taken in the same sequence, the figures for `COCCc1nc(-c2ccc(NS(=O)(=O)c3cc(Cl)ccc3F)cc2)nc2[nH]nc(N)c12` [Example 506] were 110 nM and 670 nM.
For `O=S(=O)(Nc1ccc(-c2nc(O[C@H]3CCCC(O)C3)c3cn[nH]c3n2)cc1)c1cc(Cl)ccc1F` (some centres unmarked) [Example 84], in that order: 3.2 nM and 1200 nM.
Taken in the same sequence, the figures for `COc1nc(-c2ccc(NS(=O)(=O)c3cc(Cl)ccc3C#N)cc2)nc2[nH]ncc12` [Example 138] were 44 nM and 3500 nM.
As to `Cc1n[nH]c2nc(-c3ccc(NS(=O)(=O)c4cc(Cl)ccc4F)cc3)nc(OCCCN)c12` [Example 209], the IC50 in assay [1] was less than 1.5 nM; in assay [2], 100 nM.
Taken in the same sequence, the figures for `Cc1ccc(C#N)c(S(=O)(=O)Nc2ccc(-c3nc(NC4CCC(O)CC4)c4c(C)n[nH]c4n3)cc2)c1` (centres unmarked) [Example 98] were 1.7 nM and 1700 nM.
Taken in the same sequence, the figures for `Nc1n[nH]c2nc(-c3ccc(NS(=O)(=O)c4cc(Cl)sc4Cl)cc3)ncc12` [Example 463] were 2.5 nM and 120 nM.
For `Cc1ccc(C#N)c(S(=O)(=O)Nc2ccc(-c3nc(OCC4CNCCO4)c4c(C)n[nH]c4n3)cc2)c1` (centres unmarked) [Example 293], in that order: 3.2 nM and 630 nM.
For `Cc1ccc(C#N)cc1S(=O)(=O)Nc1ccc(-c2nc(C)c3c(N)n[nH]c3n2)cc1` [Example 473], the figures for the IC50 in assay [1] and in assay [2] were 32 nM and 8200 nM, respectively.
For `Nc1n[nH]c2nc(-c3ccc(NS(=O)(=O)c4cc5c(cc4Br)OCCCO5)cc3)ncc12` [Example 459], in that order: 6.7 nM and 4000 nM.
As to `Cc1n[nH]c2nc(-c3ccc(NS(=O)(=O)c4cc(Cl)ccc4Cl)cc3)nc(OCC3CNCCO3)c12` (centres unmarked) [Example 313], the IC50 in assay [1] was 2 nM; in assay [2] it was 47 nM.
For `Nc1n[nH]c2nc(-c3ccc(NS(=O)(=O)c4ccccc4F)cc3)ncc12` [Example 517], in that order: 420 nM and 170 nM.
For `COc1ccc(Cl)c(S(=O)(=O)Nc2ccc(-c3nc(OC)c4cn[nH]c4n3)cc2)c1` [Example 143], in that order: 10 nM and 100 nM.
Taken in the same sequence, the figures for `CC(C)COc1nc(-c2ccc(NS(=O)(=O)c3cccc(Cl)c3F)cc2)nc2[nH]nc(N)c12` [Example 327] were 420 nM and 430 nM.
Regarding `NCCCOc1nc(-c2ccc(NS(=O)(=O)c3cc(Cl)ccc3Cl)cc2)nc2[nH]ncc12` [Example 63], the figures for the IC50 in assay [1] and in assay [2] were less than 1.2 nM and 280 nM, respectively.
Taken in the same sequence, the figures for `Cc1ccc(F)c(S(=O)(=O)Nc2ccc(-c3nc(OCC4CNC(=O)C4)c4cn[nH]c4n3)cc2)c1` (centres unmarked) [Example 107] were 2.5 nM and 3700 nM.
Taken in the same sequence, the figures for `Cc1n[nH]c2nc(-c3ccc(NS(=O)(=O)c4cc(Cl)ccc4F)cc3)nc(OC3CCCNC3)c12` (centres unmarked) [Example 339] were 1.3 nM and 45 nM.
For `Cc1ccc(F)c(S(=O)(=O)Nc2ccc(-c3nc(C)c4c(N)n[nH]c4n3)cc2)c1` [Example 472], in that order: 1.5 nM and 330 nM.
Take `NCCCOc1nc(-c2ccc(NS(=O)(=O)c3cc(Cl)ccc3F)cc2)nc2[nH]ncc12` [Example 62]: the IC50 was less than 1.2 nM in assay [1] and 450 nM in assay [2].
For the compound `Cc1nc(-c2ccc(NS(=O)(=O)c3cc(Cl)ccc3Cl)cc2)nc2[nH]ncc12` [Example 76], the IC50 in assay [1] was 5.7 nM; in assay [2], 3000 nM.
Regarding `COc1ccc(F)c(S(=O)(=O)Nc2ccc(-c3nc(OC4CCC(O)CC4)c4c(C)n[nH]c4n3)cc2)c1` (centres unmarked) [Example 129], the figures for the IC50 in assay [1] and in assay [2] were less than 1.5 nM and 170 nM, respectively.
Consider `Nc1n[nH]c2nc(-c3ccc(NS(=O)(=O)c4cc(F)c(F)cc4Cl)cc3)ncc12` [Example 514], for which the IC50 in assay [1] is 250 nM; in assay [2] it was 270 nM.
For `Cc1ccc(C#N)c(S(=O)(=O)Nc2ccc(-c3nc(OCCCN)c4c(C)n[nH]c4n3)cc2)c1` [Example 213], in that order: 6.4 nM and 190 nM.
Turning to `COc1ccc(Cl)c(S(=O)(=O)Nc2ccc(-c3nc(OC4CCNCC4F)c4c(C)n[nH]c4n3)cc2)c1` (centres unmarked) [Example 304], the values for the IC50 in assay [1] and in assay [2] were 2.3 nM and 130 nM, respectively.
For `COCCc1nc(-c2ccc(NS(=O)(=O)c3cc(Cl)ccc3Cl)cc2)nc2[nH]nc(N)c12` [Example 505], in that order: 47 nM and 620 nM.
For `Cc1ccc(C#N)c(S(=O)(=O)Nc2ccc(-c3ncc4c(C)n[nH]c4n3)cc2)c1` [Example 93], in that order: 2400 nM and 3300 nM.
For `Cc1ccc(F)c(S(=O)(=O)Nc2ccc(-c3nc(OCC4CNCCO4)c4c(C)n[nH]c4n3)cc2)c1` (centres unmarked) [Example 288], in that order: 2.3 nM and 61 nM.
`Cc1n[nH]c2nc(-c3ccc(NS(=O)(=O)c4cc(F)ccc4F)cc3)nc(OC3CCNCC3F)c12` (centres unmarked) [Example 296]: the IC50 came out at 2.7 nM in assay [1] and 60 nM in assay [2].
Taken in the same sequence, the figures for `Cc1n[nH]c2nc(-c3ccc(NS(=O)(=O)c4cc(Cl)ccc4Cl)cc3)nc(OC3CCC(O)CC3)c12` (centres unmarked) [Example 214] were 69 nM and 130 nM.
For `Nc1n[nH]c2cc(-c3ccc(NS(=O)(=O)c4cc(Cl)sc4Cl)cc3)ncc12` [Example 558], the figures for the IC50 in assay [1] and in assay [2] were 13 nM and 520 nM, respectively.
Taken in the same sequence, the figures for `Cc1nc(-c2ccc(NS(=O)(=O)C3=CSCC=C3Br)cc2)nc2[nH]nc(N)c12` [Example 173] were 330 nM and 600 nM.
Taken in the same sequence, the figures for `O=S(=O)(Nc1ccc(-c2nc(OCC3CNC3)c3cn[nH]c3n2)cc1)c1cc(Cl)ccc1F` [Example 198] were less than 1.5 nM and 510 nM.
Taken in the same sequence, the figures for `CC(C)(O)CCCOc1nc(-c2ccc(NS(=O)(=O)c3cc(Cl)ccc3F)cc2)nc2[nH]ncc12` [Example 86] were 11 nM and 1800 nM.
Turning to `O=S(=O)(Nc1ccc(-c2nc(SCCCO)c3cn[nH]c3n2)cc1)c1cc(Cl)ccc1Cl` [Example 89], the IC50 in assay [1] is less than 1.5 nM; in assay [2] it was 100 nM.
For the compound `Cc1nc(-c2ccc(NS(=O)(=O)c3ccc(F)cc3Cl)cc2)nc2[nH]nc(N)c12` [Example 164], the IC50 in assay [1] worked out at 40 nM; in assay [2], 600 nM.
Taken in the same sequence, the figures for `O=S(=O)(Nc1ccc(-c2nc(OC3CNC3)c3cn[nH]c3n2)cc1)c1cc(Cl)ccc1Cl` [Example 190] were 4.7 nM and 120 nM.
